Source: PMC2972358 (Journal of molecular biology, 2010)
Read-outs that look alike come from different tables or passages of the source. Bridges are numbered along the chain shown (N, C = ends). Where no end group is shown, it is not given here.

Assays:
human MC1R [1] = biological target: T1, human MC1R (Homo sapiens, UniProt Q01726); settings: at high concentration, printed in the Ki column, cited from earlier work
[2] = biological target: human melanocortin receptor MC1R (Homo sapiens, UniProt Q01726); format: cell-based; settings: absence of NDP-MSH; basal response taken as zero; HEK-293 cells with human MC1R
Chain of human melanocortin receptor MC1R (Q01726 whole entry): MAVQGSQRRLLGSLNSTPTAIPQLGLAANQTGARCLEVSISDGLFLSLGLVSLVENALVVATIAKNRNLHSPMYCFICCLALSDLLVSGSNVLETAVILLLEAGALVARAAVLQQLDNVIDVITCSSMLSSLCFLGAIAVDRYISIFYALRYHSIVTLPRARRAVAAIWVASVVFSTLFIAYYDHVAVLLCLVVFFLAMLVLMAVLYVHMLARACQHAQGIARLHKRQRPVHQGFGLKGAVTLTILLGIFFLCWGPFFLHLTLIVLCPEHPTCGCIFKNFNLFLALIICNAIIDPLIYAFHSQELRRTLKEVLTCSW

human MC1R [3] = biological target: T1, human MC1R; test: Eu-NDP-MSH displacement binding assay, MC1R
human MC4R = human MC4R (Homo sapiens, UniProt P32245); test: Eu-NDP-MSH displacement binding assay, MC4R
Chain of human MC4R (P32245 whole entry): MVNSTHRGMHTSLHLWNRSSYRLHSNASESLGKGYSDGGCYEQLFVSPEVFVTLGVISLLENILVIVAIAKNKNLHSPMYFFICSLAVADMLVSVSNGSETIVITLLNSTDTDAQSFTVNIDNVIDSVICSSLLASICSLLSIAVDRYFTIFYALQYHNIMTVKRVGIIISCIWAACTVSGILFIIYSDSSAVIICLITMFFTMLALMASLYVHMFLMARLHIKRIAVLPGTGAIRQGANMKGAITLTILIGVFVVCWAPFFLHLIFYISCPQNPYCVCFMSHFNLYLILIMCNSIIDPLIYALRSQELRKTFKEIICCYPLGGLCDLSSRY

T1 sequence (Q01726 whole entry): as the sequence (Q01726 whole entry) above

Substance: CVRLHESCLGQQVPCCDPAATCYCRFFNAFCYCR (also: bicyclic or more (positions not given here)) [chi(−1 −1 0)]
- MC1R suppression of NDP-MSH binding (partial displacement of agonist) (human MC1R [1]): 26%

Substance: CVRLHESCLGQQVPCCDPAATCYCRFFRSACYCR (also: bicyclic or more (positions not given here)) [chi(−1 +1 0)]
- Effect on cAMP production at MC1R (functional class) [2]: agonists

Substance: CVRLHESCLGQQVPCCDPCATCYCRFFNAFCYCRKLGTAMNPCSRT (bicyclic or more) [AgRP [chi(−1 −1 −1)], reference compound]
- MC1R suppression of NDP-MSH binding (partial displacement of agonist) (human MC1R [1]): 47%
- MC1R suppression of NDP-MSH binding (partial displacement of agonist) (human MC1R [1]; listed as chi(−1 −1 −1)): 47%

Substance: Ac-KKVVRPRTPLSAPCVATRNSCKPPAPACCDPCASCYCRFFNAFCYCRVLSLNC-NH2 (disulfide 14-29, 21-35, 28-46, 32-53, 37-44) [chi(+1 −1 +1)]
- Ki (human MC1R [3]): 4.9 ± 1.1 nM
- MC1R fold diff. (human MC1R [3]; fold difference of MC1R Ki relative to ASIP [chi(+1 +1 +1)]): 7.0
- Ki (human MC4R): 2.1 ± 0.3 nM
- MC4R fold diff. (human MC4R; fold difference of MC4R Ki relative to ASIP [chi(+1 +1 +1)]): 1.6
